These molecules were tested against T1, Endothelial lipase (EL) (Homo sapiens, UniProt Q9Y5X9) (assay: Endothelial lipase (EL) enzymatic assay, fluorescent substrate A10070 in DMPG vesicles). Conditions: EL from conditioned media of HT-1080 cells; compound preincubated 30 min at 37° C; read-out: EL IC50.
T1 construct: HT-1080 cells that were transformed using RAGE technology (Athersys) to overexpress endogenous EL; endogenous in cells; conditioned medium used
T1 sequence (Q9Y5X9 21-500): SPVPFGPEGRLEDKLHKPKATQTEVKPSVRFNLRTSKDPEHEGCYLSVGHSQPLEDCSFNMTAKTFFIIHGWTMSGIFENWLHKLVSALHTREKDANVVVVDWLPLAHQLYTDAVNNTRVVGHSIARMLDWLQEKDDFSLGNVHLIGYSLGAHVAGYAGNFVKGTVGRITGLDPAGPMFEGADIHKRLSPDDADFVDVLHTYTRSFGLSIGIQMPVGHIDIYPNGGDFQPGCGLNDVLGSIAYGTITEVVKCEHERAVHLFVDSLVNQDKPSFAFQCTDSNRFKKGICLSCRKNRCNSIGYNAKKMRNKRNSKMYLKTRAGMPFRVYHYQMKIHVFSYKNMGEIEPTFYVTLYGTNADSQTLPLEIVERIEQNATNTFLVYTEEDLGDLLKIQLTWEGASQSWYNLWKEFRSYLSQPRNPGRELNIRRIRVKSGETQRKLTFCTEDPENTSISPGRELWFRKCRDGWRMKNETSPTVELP
Format: biochemical
Procedure: Endothelial lipase (EL) and hepatic lipase (HL) activities were measured using a fluorescent substrate, A10070, (Invitrogen, CA) doped into an artificial vesicle containing DMPG (Avanti Polar Lipids) as the excipient. Vesicles were prepared by combining 571 μL of 29 mM DMPG in a 1:1 mixture of MeOH and CHCl3 with 2000 μL of 1 mM A10070 in a 1:1 mixture of MeOH and CHCl3. The mixture was dried under nitrogen in multiple vials then resuspended in 20 mL total volume of 50 mM HEPES pH 8.0 buffer containing 50 mM NaCl and 0.2 mM EDTA. The sample was allowed to sit at room temperature for 15 min and then was sonicated 3×4 mins on ice with a Branson Sonicator using duty cycle 1. This preparation provides vesicles with a mole fraction of 0.11 for the FRET substrate.
The enzymatic assay was measured using 384-well white Optiplates. Each well contained 20 μL of assay buffer (50 mM HEPES pH 8.0, 50 mM NaCl and 1 mM CaCl2) and 0.25 μL of a DMSO solution containing a compound of interest. EL or HL (10 μL) was added and allowed to incubate with the compound for 30 min at 37° C. The source of EL was conditioned media obtained from HT-1080 cells that were transformed using RAGE technology (Athersys) to overexpress endogenous EL, and HL was partially purified from conditioned media obtained from COS cells overexpressing HL. The reaction was started by the addition of 10 μL of a 1:10 dilution of vesicles. The final total reaction volume was […]. The reaction rates were measured on a Gemini plate reader with an excitation wavelength of 490 nm and an emission wavelength of 530 nm. Readings were taken over a period of 60 minutes, and the slope between 300 and 900 secs of the readout was used to calculate the rate of the reaction.

IC50 [nM] | Compound
< 10 | NS(=O)(=O)NCc1nnc(C(c2nc3ccc(-c4ccccc4)cc3s2)S(=O)(=O)Cc2cccc(C(F)(F)F)c2)o1 (stereo not drawn) [Example 62, N-((5-(((3-(trifluoromethyl)benzyl)sulfonyl) (6-phenyl-1,3-benzothiazol-2-yl)methyl)-1,3,4-oxadiazol-2-yl)methyl)sulfamide]
< 10 | Cc1cc2nc(C(c3nnc(CC4SC(=O)NC4=O)o3)S(=O)(=O)Cc3ccccc3)sc2cc1-c1ccccc1 (stereo not drawn) [Example 97, 5-((5-((benzylsulfonyl) (5-methyl-6-phenyl-benzo[d]thiazol-2-yl)methyl)-1,3,4-oxadiazol-2-yl)methyl)thiazolidine-2,4-dione]
< 10 | NS(=O)(=O)NCc1nnc(C(c2nc3ccc(-c4ccccc4)cc3s2)S(=O)(=O)C2CCCC2)o1 (stereo not drawn) [Example 67, N-({5-[(cyclopentylsulfonyl) (6-phenyl-1,3-benzothiazol-2-yl)methyl]-1,3,4-oxadiazol-2-yl}methyl)sulfuric diamide]
< 10 | NS(=O)(=O)NCc1nnc(C(c2nc3ccc(-c4ccccc4)cc3s2)S(=O)(=O)CC2CC2)o1 (stereo not drawn) [Example 61, N-[(5-{6-phenyl-1,3-benzothiazol-2-yl [(cyclopropylmethyl)sulfonyl]methyl}-1,3,4-oxadiazol-2-yl)methyl]sulfuric diamide]
< 10 | CC1(Cc2nnc(Cc3nc4ccc(-c5ccccc5)cc4s3)o2)NC(=O)N(CC(F)(F)F)C1=O (single isomer, unassigned; isomer b) [Example 26, 5-Methyl-5-((5-((6-phenylbenzo[d]thiazol-2-yl)methyl)-1,3,4-oxadiazol-2-yl)methyl)-3-(2,2,2-trifluoroethyl)imidazolidine-2,4-dione (Isomer B)]
< 10 | CC1(Cc2nnc(C(c3nc4ccc(-c5ccccc5)cc4s3)S(C)(=O)=O)o2)NC(=O)NC1=O (stereo not drawn) [Example 29, 5-methyl-5-((5-((methylsulfonyl)(6-phenyl-1,3-benzothiazol-2-yl)methyl)-1,3,4-oxadiazol-2-yl)methyl)-2,4-imidazolidinedione]
< 10 | CS(=O)(=O)C(c1nnc(CNS(N)(=O)=O)o1)c1nc2ccc(-c3ccc(C(=O)NCC(F)(F)F)cc3)cc2s1 (stereo not drawn) [Example 78, 4-(2-((methylsulfonyl) (5-((sulfamoylamino)methyl)-1,3,4-oxadiazol-2-yl)methyl)benzo[d]thiazol-6-yl)-N-(2,2,2-trifluoroethyl) benzamide]
< 10 | CS(=O)(=O)C(c1nnc(CC2SC(=O)NC2=O)o1)c1nc2c(F)cc(-c3ccccc3)cc2s1 (stereo not drawn) [Example 94, 5-((5-((4-fluoro-6-phenyl-benzo[d]thiazol-2-yl) (methylsulfonyl)methyl)-1,3,4-oxadiazol-2-yl)methyl)thiazolidine-2,4-dione]
< 10 | COc1ccc(OCCCS(=O)(=O)C(c2nnc(CNS(N)(=O)=O)o2)c2nc3ccc(-c4ccccc4)cc3s2)cc1 (stereo not drawn) [Example 55, N-((5-(((3-(4-methoxyphenoxy)propyl)sulfonyl) (6-phenyl-1,3-benzothiazol-2-yl)methyl)-1,3,4-oxadiazol-2-yl)methyl)sulfamide]
> 10 | O=S(=O)(O)Cc1nnc(C(c2nc3ccc(-c4ccc(OCc5ccccc5)cc4)cc3s2)S(=O)(=O)CCC(F)(F)F)o1 (stereo not drawn) [Example 11, (5-((6-(4-(benzyloxy)phenyl)benzo[d]thiazol-2-yl)((3,3,3-trifluoropropyl)sulfonyl)methyl)-1,3,4-oxadiazol-2-yl)methanesulfonic acid]
< 10 | O=C(OCc1ccccc1)N1CCC(S(=O)(=O)C(c2nnc(CS(=O)(=O)O)o2)c2nc3ccc(-c4ccccc4)cc3s2)CC1 (stereo not drawn) [Example 32, (5-(((1-((benzyloxy)carbonyl)-4-piperidinyl)sulfonyl)(6-phenyl-1,3-benzothiazol-2-yl)methyl)-1,3,4-oxadiazol-2-yl)methanesulfonic acid]
< 10 | NS(=O)(=O)NCc1nnc(C(c2nc3ccc(-c4ccccc4)cc3s2)S(=O)(=O)Cc2ccc(C(F)(F)F)cc2)o1 (stereo not drawn) [Example 48, N-((5-((6-phenyl-1,3-benzothiazol-2-yl)((4-(trifluoromethyl)benzyl)sulfonyl)methyl)-1,3,4-oxadiazol-2-yl)methyl)sulfamide]
< 10 | Cc1nccn1-c1nc(-c2ccc3nc(C(c4nnc(CC5SC(=O)NC5=O)o4)S(C)(=O)=O)sc3c2)cs1 (stereo not drawn) [Example 25, 5-((5-((6-(2-(2-methyl-1H-imidazol-1-yl)thiazol-4-yl)benzo[d]thiazol-2-yl)(methylsulfonyl)methyl)-1,3,4-oxadiazol-2-yl)methyl) thiazolidine-2,4-dione]
< 10 | NS(=O)(=O)NCc1nnc(C(c2nc3ccc(-c4ccccc4)cc3s2)S(=O)(=O)CCN2C(=O)c3ccccc3C2=O)o1 (stereo not drawn) [Example 52, N-[(5-{(6-phenyl-1,3-benzothiazol-2-yl) ([2-(1,3-dioxo-1,3-dihydro-2H-isoindol-2-yl)ethyl]sulfonyl)methyl}-1,3,4-oxadiazol-2-yl)methyl]sulfuric diamide]
< 10 | O=C(NCCS(=O)(=O)C(c1nnc(CC2SC(=O)NC2=O)o1)c1nc2c(F)cc(-c3ccccc3)cc2s1)OCc1ccccc1 (stereo not drawn) [Example 92, benzyl (2-(((5-((2,4-dioxothiazolidin-5-yl)methyl)-1,3,4-oxadiazol-2-yl)(4-fluoro-6-phenyl-benzo[d]thiazol-2-yl)methyl)sulfonyl)ethyl) carbamate]
< 10 | CCCS(=O)(=O)C(c1nnc(CNS(N)(=O)=O)o1)c1nc2ccc(-c3ccccc3)cc2s1 (stereo not drawn) [Example 66, N-({5-[(propylsulfonyl) (6-phenyl-1,3-benzothiazol-2-yl)methyl]-1,3,4-oxadiazol-2-yl}methyl) sulfuric diamide]
< 10 | CS(=O)(=O)C(c1nnc(CNS(N)(=O)=O)o1)c1nc2ccc(-c3ccc(F)nc3)cc2s1 (stereo not drawn) [Example 79, N-((5-((6-(6-fluoro-3-pyridinyl)-1,3-benzothiazol-2-yl)(methylsulfonyl)methyl)-1,3,4-oxadiazol-2-yl)methyl)sulfamide]
27 | CC1(Cc2nnc(C(c3nc4ccc(-c5ccc(F)nc5)cc4s3)S(C)(=O)=O)o2)NC(=O)NC1=O (single isomer, unassigned; isomer b) [Example 22, 5-((5-((6-(6-fluoropyridin-3-yl)benzo[d]thiazol-2-yl)(methylsulfonyl)methyl)-1,3,4-oxadiazol-2-yl)methyl)-5-methylimidazolidine-2,4-dione (Isomer B)]
< 10 | NS(=O)(=O)NCc1nnc(C(c2nc3ccc(-c4ccccc4)cc3s2)S(=O)(=O)C2CCOCC2)o1 (stereo not drawn) [Example 53, N-({5-[6-phenyl-1,3-benzothiazol-2-yl (tetrahydro-2H-pyran-4-ylsulfonyl)methyl]-1,3,4-oxadiazol-2-yl}methyl) sulfuric diamide]
~10 | NS(=O)(=O)NCc1nnc(C(c2nc3ccc(-c4ccccc4)cc3s2)S(=O)(=O)CCCc2ccccc2)o1 (stereo not drawn) [Example 54, N-((5-((6-phenyl-1,3-benzothiazol-2-yl) ((3-phenylpropyl)sulfonyl)methyl)-1,3,4-oxadiazol-2-yl)methyl) sulfamide]

Compound | IC50 [nM]
CN(C)C(=O)Cc1nnc(C(c2nc3ccc(-c4ccccc4)cc3s2)S(=O)(=O)Cc2ccccc2)o1 (stereo not drawn) [Example 39, 2-(5-((benzylsulfonyl)(6-phenylbenzo[d]thiazol-2-yl)methyl)-1,3,4-oxadiazol-2-yl)-N,N-dimethylacetamide] | 190
NS(=O)(=O)Cc1nnc(C(c2nc3ccc(-c4ccccc4)cc3s2)S(=O)(=O)CCC(F)(F)F)o1 (stereo not drawn) [Example 35] | < 10
NS(=O)(=O)NCc1nnc(C(c2nc3ccc(-c4ccccc4)cc3s2)S(=O)(=O)Cc2ccc(F)cc2)o1 (stereo not drawn) [Example 69, N-((5-(((4-fluorobenzyl)sulfonyl)(6-phenyl-1,3-benzothiazol-2-yl)methyl)-1,3,4-oxadiazol-2-yl)methyl)sulfamide] | < 10
NS(=O)(=O)NCc1nnc(C(c2nc3ccc(-c4ccc(F)nc4)cc3s2)S(=O)(=O)Cc2ccc(F)nc2)o1 (stereo not drawn) [Example 77, N-({5-[6-(6-fluoro-3-pyridinyl)-1,3-benzothiazol-2-yl({[6-fluoro-pyridin-3-yl]methyl}sulfonyl)methyl]-1,3,4-oxadiazol-2-yl}methyl)sulfuric diamide] | 18
